Results published in patent US10005817B2, “Peptide pharmaceuticals” (EUMEDERIS PHARMACEUTICALS, INC., priority 2012, dated 2018).
“Also recorded” adds a separate entry of the source. Non-standard residues stand in square brackets, D forms with d. Residues, ends and D or L forms follow the SMILES beside them. *: point of attachment. GlcA(β-D,1-O-dodecyl) = CCCCCCCCCCCCO[C@@H]1O[C@H](C(=O)*)[C@@H](O)[C@H](O)[C@H]1O; βGlcA(1-OMe) = CO[C@@H]1O[C@H](C(=O)*)[C@@H](O)[C@H](O)[C@H]1O; Dmt = Cc1cc(O)cc(C)c1C[C@H](N)C(=O)O; hArg = N=C(N)NCCCC[C@H](N)C(=O)O; Tic = O=C(O)[C@@H]1Cc2ccccc2CN1; Nle = CCCC[C@H](N)C(=O)O; Ac5c = NC1(C(=O)O)CCCC1; Aib = CC(C)(N)C(=O)O

How the values were obtained:
[1] = target: T1, PTH receptor (PTHR1) (Homo sapiens, UniProt Q03431); test: PTH1 cellular assay, antagonist mode with added PTHrP; assay type: cell-based; conditions: read-out: maximal effects in antagonist mode
T1 construct: Cerep SA
T1 sequence (Q03431 27-593): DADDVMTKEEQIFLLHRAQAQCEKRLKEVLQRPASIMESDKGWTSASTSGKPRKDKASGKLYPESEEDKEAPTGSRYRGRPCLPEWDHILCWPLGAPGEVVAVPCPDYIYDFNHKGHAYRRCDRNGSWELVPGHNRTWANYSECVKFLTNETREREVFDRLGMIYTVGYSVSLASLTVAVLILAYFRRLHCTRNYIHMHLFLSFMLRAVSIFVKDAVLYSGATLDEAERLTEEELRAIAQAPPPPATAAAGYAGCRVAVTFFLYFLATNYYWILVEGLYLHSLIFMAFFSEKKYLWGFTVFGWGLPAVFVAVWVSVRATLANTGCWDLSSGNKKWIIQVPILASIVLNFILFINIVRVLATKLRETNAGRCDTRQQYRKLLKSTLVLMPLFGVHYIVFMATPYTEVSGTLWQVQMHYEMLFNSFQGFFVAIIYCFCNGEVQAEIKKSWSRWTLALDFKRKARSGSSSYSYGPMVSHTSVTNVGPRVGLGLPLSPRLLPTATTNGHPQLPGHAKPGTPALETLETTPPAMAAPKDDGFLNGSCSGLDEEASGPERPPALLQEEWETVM
Protocol: Compounds were weighed precisely in an amount of approximately 1 mg and assayed in standard cellular assays (cerep SA). The readout is the amount of cAMP generated in the cells treated with the test compounds, in either agonist or antagonist mode. The PTH1 cellular assay used is described in Orloff, J. J., et al. (1992) Endocrinol 131: 1603-1611.
Modifications elsewhere in the molecule can be used to further modify the potency and character of the interaction of the drug candidates.

[2] = target: T2, mu opioid receptor (Homo sapiens, UniProt P35372); test: mu opioid receptor cellular assay (MOP), agonist mode, cAMP readout (Cerep); assay type: cell-based
T2 construct: Cerep

[3] = target: T3, delta2 opioid receptor (Mus musculus, UniProt P32300); test: delta2 opioid receptor cellular assay (DOP), antagonist mode vs DPDPE, cAMP readout; assay type: cell-based
T3 construct: Cerep
Protocol: Compounds were weighed precisely in an amount of approximately 2 mg and assayed in standard cellular assays by the contract research organization Cerep, Inc. (Pullman, Wash.) as executed at their subsidiary, Cerep SA (Le Bois l'Eveque, France). The readout is the amount of cAMP generated in the cells treated with the test compounds, in either agonist or antagonist mode. The assays used were the mu opioid receptor cellular assay (MOP in agonist and antagonist mode), the delta2 opioid receptor cellular assay (DOP in agonist and antagonist mode) and the kappa opioid receptor cellular assay (KOP in agonist and antagonist mode). The assays used are described in Wang, J. B., et al. (1994) FEBS Lett 338: 217-222, Law, P. Y. and Loh, H. H. (1993) Mol Pharmacol 43: 684-693, and Avidor-Reiss, T., et al. (1995) FEBS Lett 361: 70-74. The stimulant for the cells in the DOR antagonist assay was 3×10E-8M DPDPE, a well-accepted DOR literature standard.

[4] = system: λ-carrageenan-induced inflammatory pain; test: λ-carrageenan-induced inflammatory pain model, paw pressure threshold (Randall-Selitto); assay type: in vivo, rat; conditions: rats, i.pl., 24 h after carrageenan; beyond 30 min
Protocol: Adult male Sprague-Dawley rats were briefly anesthetized with isoflurane, and unilateral hind paw inflammatory pain was induced by injecting […] of λ-carrageenan. A λ-carrageenan injection into the left hind paw produces redness and edema. These alterations were observed within 6 h after induction of inflammation and peaked by 24 h. Further, the changes were confined to the carrageenan treated paw.
Changes in Paw Pressure Thresholds (PPT), a measurement of nociception and antinociception, was evaluated using a digital Randall-Selitto method. Briefly, animals are gently restrained and incremental pressure (maximum 350 g) was applied onto the dorsal surface of the hindpaw. The pressure required to elicit paw withdrawal, PPT, was determined. Paw-thickness, the indicator of inflammation, was measured using digital calipers. 24 h after induction of inflammation, rats received either saline, positive controls (DAMGO (8-32 μg) or fentanyl (0.4-0.8 μg)) or test peptides in 100 μl volume i.pl. The antinociception was measured at different time points (5 to 120 min or 5 hr to 24 hr) after drug administration. Baseline measures were taken before administering drug to confirm the development of inflammation and nociception.

T3 sequence (P32300 whole entry): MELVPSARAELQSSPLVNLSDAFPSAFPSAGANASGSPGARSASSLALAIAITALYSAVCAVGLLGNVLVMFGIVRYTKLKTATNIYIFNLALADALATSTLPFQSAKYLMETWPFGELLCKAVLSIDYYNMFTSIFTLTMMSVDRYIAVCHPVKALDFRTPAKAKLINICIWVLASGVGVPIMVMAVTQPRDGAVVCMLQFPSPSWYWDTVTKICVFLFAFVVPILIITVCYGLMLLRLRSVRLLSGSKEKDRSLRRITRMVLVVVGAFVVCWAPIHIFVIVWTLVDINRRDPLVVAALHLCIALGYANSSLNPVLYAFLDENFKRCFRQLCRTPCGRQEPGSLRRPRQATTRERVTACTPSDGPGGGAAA
T2 sequence (P35372 whole entry): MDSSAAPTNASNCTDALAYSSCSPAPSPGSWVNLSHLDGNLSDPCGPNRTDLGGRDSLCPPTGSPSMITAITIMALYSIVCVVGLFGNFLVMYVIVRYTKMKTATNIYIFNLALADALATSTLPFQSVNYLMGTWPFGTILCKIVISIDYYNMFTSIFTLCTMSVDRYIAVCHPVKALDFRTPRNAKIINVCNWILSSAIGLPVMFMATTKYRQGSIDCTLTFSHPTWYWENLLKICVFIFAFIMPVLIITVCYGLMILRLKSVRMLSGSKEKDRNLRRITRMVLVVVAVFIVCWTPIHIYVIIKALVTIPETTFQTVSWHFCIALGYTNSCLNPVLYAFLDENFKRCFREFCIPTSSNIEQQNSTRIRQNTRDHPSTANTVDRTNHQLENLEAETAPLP

SMILES | Emax [1] [%] | Characterization (MOP) [2] | Characterization (DOP) [3] | Paw Pressure Thresholds (PPT) [4]
CCCCCCCCCCCCO[C@@H]1O[C@H](C(=O)NCCCC[C@H](NC(=O)[C@H](CCC(N)=O)NC(=O)[C@@H](NC(=O)[C@H](Cc2ccccc2)NC(=O)[C@H](CCCNC(=N)N)NC(=O)[C@H](C)NC(=O)[C@H](CCCCNC(=N)N)NC(=O)[C@H](CCC(N)=O)NC(=O)[C@H](Cc2c[nH]cn2)NC(=O)[C@H](CCCC)NC(=O)[C@H](CC(C)C)NC(=O)[C@H](CCC(N)=O)NC(=O)[C@@H](NC(=O)[C@H](CCC(=O)O)NC(=O)C(C)(C)NC(=O)[C@@H](NC(=O)C2(N)CCCC2)C(C)C)[C@@H](C)CC)[C@@H](C)CC)C(N)=O)[C@@H](O)[C@H](O)[C@H]1O [EU-203] (H-[Ac5c]V[Aib]EIQL[Nle]HQ[hArg]ARFIQK(GlcA(β-D,1-O-dodecyl))-NH2; N-terminus assumed) | 146 |  |  | 
CO[C@@H]1O[C@H](C(=O)NCCCC[C@H](NC(=O)[C@H](Cc2ccccc2)NC(=O)[C@@H]2Cc3ccccc3CN2C(=O)[C@@H](N)Cc2c(C)cc(O)cc2C)C(N)=O)[C@@H](O)[C@H](O)[C@H]1O [EU-A178, 2′,6′-dimethyl-L-tyrosyl-L-1,2,3,4-tetrahydroisoquinoline-3-carbonyl-L-phenylalanyl-Nε-(1′-methyl β-D-glucuronyl)-L-lysyl-amide] (H-[Dmt][Tic]FK(βGlcA(1-OMe))-NH2) |  | full agonistic behavior; also recorded: Pure MOP Ag; | pure antagonist; also recorded: pure DOP antag | statistically significant increases in PPT
